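Exposure lasted 48 hours, with cells grown in 96-well plates and compounds tested at five concentrations. GI50 = concentration required for 50% inhibition of growth.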 Activity calls are given as the source filed them. Rule as the data show it: active = GI50 up to about 1.1 µM and inactive = higher. Where only a bound is given, the exact number is not on record here.

Among the test systems are A498; A549; COLO 205; DU-145; HOP-62; Hs-578T; IGROV-1; KM12; MCF7; MDA-MB-231; MDA-N; MOLT-4; NCI/ADR-RES; OVCAR-3; OVCAR-8; PC-3; SF-539; SK-MEL-2; SW-620; UACC-62.
Assay in all cases: inhibition of tumour cell growth, NCI panel, 48 h

As for `COc1ccc(OC)c(CC2CCc3nc(N)nc(N)c3C2)c1` (stereo not given), the GI50 in the assay on A498 is 23.1 µM (inactive); in the assay with A549, < 0.01 µM (active); in the assay on COLO 205, 10.2 µM (inactive); in the assay with DU-145, 1.62 µM (inactive); in the assay with HOP-62, 4.27 µM (inactive); with Hs-578T, 23.7 µM (inactive). In addition, the GI50 in the assay with IGROV-1 was < 0.0453 µM (active); with KM12, 1.56 µM (inactive); in the assay with MCF7, 0.509 µM (active); with MDA-MB-231, 25.4 µM (inactive); in the assay on MDA-N, < 0.01 µM (active); in the assay on MOLT-4, 1.52 µM (inactive). Moreover, the GI50 was 2.8 µM (inactive) in the assay with NCI/ADR-RES; 15 µM (inactive) with OVCAR-3; 20.3 µM (inactive) with OVCAR-8; 0.0316 µM (active) in the assay with PC-3; 0.275 µM (active) with SF-539; 23.6 µM (inactive) in the assay on SK-MEL-2. Further, the GI50 in the assay with SW-620 is 0.286 µM (active); in the assay on UACC-62, < 0.0133 µM (active).
Turning to `O=C(/C=C/c1ccco1)c1cccc(C(=O)/C=C/c2ccco2)n1`, the GI50 with A498 was > 72.1 µM (inactive); in the assay on A549 it was 27.1 µM (inactive); in the assay with COLO 205, 23.6 µM (inactive); with DU-145, 24.9 µM (inactive); in the assay on HOP-62, 17.1 µM (inactive); in the assay with Hs-578T it was 4.4 µM (inactive). Further, the GI50 in the assay on IGROV-1 was 6.82 µM (inactive); in the assay with KM12, 3.98 µM (inactive); in the assay with MCF7 it was 0.662 µM (active); in the assay on MDA-MB-231, 40.1 µM (inactive); in the assay on MDA-N, 10.7 µM (inactive); in the assay with MOLT-4, 2.19 µM (inactive). Also, the GI50 is 24.2 µM (inactive) with NCI/ADR-RES; 19.4 µM (inactive) with OVCAR-3; 2.69 µM (inactive) in the assay with OVCAR-8; 13.2 µM (inactive) with PC-3; 5.01 µM (inactive) in the assay on SF-539; 25.5 µM (inactive) in the assay with SK-MEL-2. Further, the GI50 was 3.2 µM (inactive) in the assay with SW-620 and 27.8 µM (inactive) in the assay with UACC-62.
Consider `S=P(N1CC1)(N1CC1)N1CC1` [THIOTEPA], for which the GI50 is 126 µM (inactive) in the assay with A498; 50.4 µM (inactive) in the assay on A549; 141 µM (inactive) in the assay on COLO 205; 32.1 µM (inactive) with DU-145; 31.3 µM (inactive) with HOP-62; 361 µM (inactive) in the assay on Hs-578T. Moreover, the GI50 in the assay with IGROV-1 is 158 µM (inactive); in the assay on KM12 it was 171 µM (inactive); with MCF7, 30.7 µM (inactive); with MDA-MB-231, 274 µM (inactive); in the assay on MDA-N, 161 µM (inactive); in the assay on MOLT-4, 7.69 µM (inactive). Moreover, the GI50 in the assay with NCI/ADR-RES is 79.1 µM (inactive); in the assay on OVCAR-3, 169 µM (inactive); in the assay with OVCAR-8 it was 110 µM (inactive); in the assay with PC-3, 217 µM (inactive); with SF-539 it was 37.7 µM (inactive); in the assay with SK-MEL-2, 220 µM (inactive). For the same molecule, the GI50 in the assay with SW-620 was 140 µM (inactive); in the assay with UACC-62, 14.7 µM (inactive).
For the molecule `CCN1CCCn2c(=O)[nH]c3cc(Br)cc1c32`, the GI50 is 15.1 µM (inactive) in the assay with A498; > 100 µM (inactive) with A549; > 100 µM (inactive) with COLO 205; > 100 µM (inactive) with DU-145; 25.5 µM (inactive) in the assay with HOP-62; 0.394 µM (active) in the assay on Hs-578T. The GI50 was > 100 µM (inactive) in the assay on IGROV-1; > 100 µM (inactive) in the assay with KM12; > 100 µM (inactive) with MCF7; 38.4 µM (inactive) with MDA-MB-231; > 100 µM (inactive) with MDA-N; 60.8 µM (inactive) in the assay with MOLT-4. Also, the GI50 is > 100 µM (inactive) in the assay with NCI/ADR-RES; > 100 µM (inactive) with OVCAR-3; 27 µM (inactive) in the assay with OVCAR-8; > 100 µM (inactive) with PC-3; 23 µM (inactive) with SF-539; > 100 µM (inactive) in the assay with SK-MEL-2. Moreover, the GI50 with SW-620 is > 100 µM (inactive); with UACC-62, 69.8 µM (inactive).

(Values after ChEMBL document CHEMBL1201862, “PubChem BioAssay data set” (2004).)
